Measurements taken from US20230139883A1, “Peptides for Inducing Differentiation” (Shimadzu Corporation, priority 2020, published 2023).

Tests used:
iPS-hFB [1] = assay: Differentiation induction of iPS cells into cardiomyocytes: observation of beating cell clusters; details: Example 3: 0.05 μM peptide + Activin A on Day 1, no bFGF
iPS-hFB [2] = assay: CYP3A4 activity (luciferin-IPA) of hepatocytes induced to differentiate from iPS cells; assay type: cell-based; details: Day 20, luminescence corrected by protein
Protocol: Differentiation of iPS cells was induced in the same manner as in Example 13. After the cells were washed with PBS on Day 20, the medium was exchanged with HCM BulletKit (Lonza) containing 3 μM luciferin-IPA at 1 mL/well. After 1 hour of reaction at 37° C., 100 μL of the supernatant was transferred to a 96-well white plate., and Luciferin Detection Reagent was added at 100 μL/well. After 20 minutes of reaction at room temperature, the luminescence was measured. The cells were also crushed and the luminescence value was corrected by quantifying proteins with TaKaRa BCA Protein Assay Kit (Takara Bio).

iPS-hFB [3] = assay: Differentiation induction of iPS cells into neurons: RT-qPCR of SYN1, MAP2 and Nr2f1; assay type: cell-based; details: for Nr2f1 gene expression level: 0.25 nM peptide on Day 3, Day 35
Protocol: An attempt to apply 100nX to a differentiation induction system from iPS cells to neurons was made. […] A group in which G-MEM supplemented with 20% KSR (Thermo), 1xNEAA (Thermo), 0.1 mM 2-mercaptoethanol (Wako Pure Chemicals), 1 mM sodium pyruvate (Thermo), 20 μM Y27632 (Wako Pure Chemicals), 3 μM IWR-1-endo (Wako Pure Chemicals), 5 μM SB431542 (Wako Pure Chemicals) was added at 100 μL/well was prepared as a control group (FIG. 14, protocol 2). On Day 6, the entire medium was replaced with the medium of each condition containing no Y27632 (Wako Pure Chemicals). Likewise, the medium was exchanged at Day 10 and Day 14. The medium was removed on Day 18 and the cells added with DMEM/F12 (GlutaMax) (Thermo) containing 1% N-2 Supplement and 1% Chemically Defined Lipid Concentrate were transferred to EZSPHERE (AGC Technoglass) at 2 mL/well. On Day 21, 24, and 27, the medium was replaced with DMEM/F12 (GlutaMax) (Thermo) containing 1% N-2 Supplement. Further, On Day 30, and 33, the medium was replaced with DMEM/F12 (GlutaMax) (Thermo) containing 1% N-2 Supplement and 1% Chemically Defined Lipid Concentrate.

iPS-hFB [4] = assay: Differentiation induction of iPS cells into cardiomyocytes: RT-qPCR of cardiomyocyte markers cTNT and Actinin; details: Example 4: peptide in combination with bFGF, Day 23; compared to conventional protocol 1
FGFR1 = assay: Phage display selection against FGFR1 with Miseq analysis of the bound phages; assay type: binding
Protocol: The collected phage library was mixed with 100 nM of FGFR3 solution and allowed to react overnight at 4° C. (Table 5: Panning Round 1). After the reaction, the binding phages were captured by magnetic beads modified with protein A, and washed three times with PBS-T, followed by eluting the bound phages with Gly-HCl (pH 2.0). After neutralizing with 2M Tris, the phages were infected to E. coli. After 4 hours of incubation, helper phages were added, and the E. coli were allowed to produce phages overnight. Next, phage solution was prepared from the culture supernatant. The prepared phage solution was mixed with FGFR3 solution and allowed to react overnight at 4° C. (Table 5: Panning Round 2). After the reaction, the bound phages were eluted. Phage solution prepared in the same way was mixed with FGFR3 solution and allowed to react at 4° C. for 1 hour (Table 5: Panning Round 3). After the reaction, the bound phages were eluted. This operation was repeated two more times, and after Panning Round 5, the bound phages were eluted. Note that as the rounds proceeded, the number of washes with PBS-T was increased. (Table 5). The titer of the Output phage in each round was also determined. The titer of phage was determined from the number of colonies obtained by incubating the E. coli TG1 strain contacted with the phage at 37° C. overnight. As shown in FIG. 3<Input phage (Round 5)>, the eluted phage library after panning was subjected to Human IgG Fc-immobilized plate, and negative selection was performed by collecting unbound phages. The phage library was then acted to FGFR1 prepared to concentrations of 100 nM, 10 nM, and 1 nM. Bound phages were then collected. The phagemid DNA of the collected phages was extracted, samples were prepared according to Illumina's protocol for Miseq, and a comprehensive analysis of the phagemid DNA was performed. Among the sequences obtained, 23 sequences with high incidence rates were selected (Table 6).

iPS-hFB [5] = assay type: cell-based
Protocol: An attempt to apply 100nX to a differentiation induction system from iPS cells to hepatocytes was made. […] Then, cells were seeded in 6-well plates at 1.5×10^5 cells/well. […] The medium was replaced on Day 3 using the same medium. The medium was removed on Day 5 and RPMI1640 supplemented with B-27 Plus Supplement (Thermo), 20 ng/mL BMP4, and 20 ng/mL bFGF was added at 2 mL/well (conventional protocol; FIG. 14, protocol 1). […] Further, as a control group, RPMI1640 supplemented with B-27 Plus Supplement (Thermo), and 20 ng/mL BMP4 was added at 2 mL/well (conventional protocol; FIG. 14, protocol 2). The medium was replaced on Day 8 using the same medium. In all conditions, the medium was removed on Day 10, and RPMI1640 supplemented with B-27 Plus Supplement (Thermo), and 20 ng/mL HGF was added at 2 mL/well. The medium was replaced on Day 12 and Day 14 using the same medium. The medium was exchanged with HCM BulletKit (Lonza) (containing HBM, Ascorbic Acid, BSA-FAF, Hydrocortisone, Transferin, GA-1000, and Insulin) on Day 15 at 2 mL/well. On Day 17 and Day 18, the medium was exchanged with the same medium.

FGFR = assay: Binding to FGFR by surface plasmon resonance (Biacore T200); details: SPR, 25° C., FGFR1, FGFR2 or FGFR3 immobilized (FIG. 4)
Source text: One clone was selected from the amino acid sequences of the clones obtained above, and the peptide of 100nX (X is 9: SEQ ID NO: 9, the same shall apply hereinafter.) was synthesized. The peptide was synthesized based on the Fmoc solid-phase synthesis method. To measure the binding activity of the peptides, according to the operation manual of the SPR instrument Biacore T200 (GE Healthcare), FGFR1 was immobilized as a ligand to the instrument's sensor chip CMS using the amine coupling method. In addition, to confirm binding to other FGFR species, FGFR2 or FGFR3-immobilized sensor chips were also prepared. Ethanolamine was immobilized as a reference, and the samples were measured as analyte.
All measurements were performed at 25° C. and HBS-EP+ was used as the running buffer. After injecting the running buffer dissolving the peptide into the CMS sensor chip immobilized with various FGFRs (flow rate 30 μl/min, 2 min), the peptide was dissociated by flowing the running buffer for 3 min. The obtained sensorgram was directly curve-fitted with the reaction equation, and the rate constant was calculated by a nonlinear least-squares method. Dissociation constants were calculated by kinetic analysis using Biacore T200 Evaluation Software (GE Healthcare). A 1:1 binding model was used in the analysis.

[6] = 0.25 nM peptide, Day 35, compared to control protocol 2 (no bFGF)

For “CAAELAALEAELAALEGVPGDNNGTRGKLYHLKNKLHRLKNAC [100n9]”, the “day on which beating cell clusters were observed” value (iPS-hFB [1]) was no less than 16 days, the CYP3A4 activity (iPS-hFB [2]; compared to control protocol 2 (BMP4)) was “significantly increased” and the CYP3A4 activity (iPS-hFB [2]; compared to conventional protocol 1 (BMP4, bFGF)) was “similar”. For the same sequence, the “Nr2f1 gene expression level” value (iPS-hFB [3]; compared to control protocol 2 (no bFGF)) was “significantly increased”, the “Nr2f1 gene expression level” value (iPS-hFB [3]; compared to conventional protocol 1 (bFGF)) was “similar” and the “MAP2 gene expression level” value (iPS-hFB [3]; [6]) was “tended to increase”. The “SYN1 gene expression level” value (iPS-hFB [3]; [6]) was “tended to increase”, the “promotion of / contribution to neural differentiation” value (iPS-hFB [3]; overall, relative to bFGF) was “as effective as conventional bFGF” and the “gene expression levels (cTNT, ACTN2)” value (iPS-hFB [4]) was “significantly increased”. For the same sequence, the “1 nM Num. of reads” value (FGFR1; phage library after panning Round 5, bound to 1 nM FGFR1) was 6403, the “10 nM Num. of reads” value (FGFR1; phage library after panning Round 5, bound to 10 nM FGFR1) was 7169 and the “100 nM Num. of reads” value (FGFR1; phage library after panning Round 5, bound to 100 nM FGFR1) was 6135. The “1 nM Ranking” value (FGFR1; rank by number of reads, 1 nM FGFR1) was 4, the “10 nM Ranking” value (FGFR1; rank by number of reads, 10 nM FGFR1) was 3 and the “100 nM Ranking” value (FGFR1; rank by number of reads, 100 nM FGFR1) was 3. For the same sequence, the “promotion of hepatic differentiation” value (iPS-hFB [5]) was “as effective as or better than conventional bFGF” and the “binding affinity to the FGFR” value (FGFR) was “high binding affinity”.
